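Assay format: 96-well plates, 48-hour exposure. The concentration for 50% growth inhibition is given as GI50. At the TGI there is no net growth.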
Legend:
Experiment in all cases: growth of human tumour cells (NCI), 48 h
RXF 393 renal = tested on: RXF 393 renal
HL-60(TB) leukemia = tested on: HL-60(TB) leukemia
CCRF-CEM leukemia = tested on: CCRF-CEM leukemia
SF-539 CNS = tested on: SF-539 CNS
OVCAR-3 ovarian = tested on: OVCAR-3 ovarian
SNB-75 CNS = tested on: SNB-75 CNS
SK-MEL-2 melanoma = tested on: SK-MEL-2 melanoma
PC-3 prostate = tested on: PC-3 prostate
NCI/ADR-RES ovarian = tested on: NCI/ADR-RES ovarian
U251 CNS = tested on: U251 CNS
DU-145 prostate = tested on: DU-145 prostate
UACC-62 melanoma = tested on: UACC-62 melanoma
CAKI-1 renal = tested on: CAKI-1 renal
HCT-15 colon = tested on: HCT-15 colon
SN12C renal = tested on: SN12C renal
RPMI-8226 leukemia = tested on: RPMI-8226 leukemia
SW-620 colon = tested on: SW-620 colon
COLO 205 colon = tested on: COLO 205 colon
OVCAR-5 ovarian = tested on: OVCAR-5 ovarian
MDA-MB-435 = tested on: MDA-MB-435
UO-31 renal = tested on: UO-31 renal
NCI-H23 lung = tested on: NCI-H23 lung
MCF7 breast = tested on: MCF7 breast
IGROV1 ovarian = tested on: IGROV1 ovarian
NCI-H460 lung = tested on: NCI-H460 lung
EKVX NSCLC = tested on: EKVX NSCLC
SR leukemia = tested on: SR leukemia

For `CCNCCNc1cc(-c2ccc(C(=O)OC)cc2)c(C#N)c2nc3ccccc3n12`, the GI50 (RXF 393 renal) was 1.42 µM, the TGI (RXF 393 renal) was 2.85 µM and the GI50 (HL-60(TB) leukemia) was 1.11 µM. For the same molecule, the TGI (HL-60(TB) leukemia) was 2.93 µM, the GI50 (CCRF-CEM leukemia) was 0.505 µM and the TGI (CCRF-CEM leukemia) was 3.55 µM. For the same molecule, the GI50 (SF-539 CNS) was 1.74 µM, the TGI (SF-539 CNS) was 3.33 µM and the GI50 (OVCAR-3 ovarian) was 1.35 µM. For the same molecule, the TGI (OVCAR-3 ovarian) was 2.88 µM, the GI50 (SNB-75 CNS) was 1.53 µM and the TGI (SNB-75 CNS) was 3.17 µM. It also gave a GI50 (SK-MEL-2 melanoma) of 5.15 µM, a TGI (SK-MEL-2 melanoma) of 31.5 µM and a GI50 (PC-3 prostate) of 5.28 µM. The TGI (PC-3 prostate) was greater than 100 µM, the GI50 (NCI/ADR-RES ovarian) was 2.8 µM and the TGI (NCI/ADR-RES ovarian) was greater than 100 µM. It also gave a GI50 (U251 CNS) of 1.53 µM, a TGI (U251 CNS) of 3.11 µM and a GI50 (DU-145 prostate) of 2.65 µM. The TGI (DU-145 prostate) was greater than 100 µM, the GI50 (UACC-62 melanoma) was 2.26 µM and the TGI (UACC-62 melanoma) was 4.74 µM. It also gave a GI50 (CAKI-1 renal) of 2.92 µM, a TGI (CAKI-1 renal) greater than 100 µM and a GI50 (HCT-15 colon) of 1.47 µM. It also gave a TGI (HCT-15 colon) of 4.65 µM, a GI50 (SN12C renal) of 2.68 µM and a TGI (SN12C renal) of 8.33 µM. It also gave a GI50 (RPMI-8226 leukemia) of 1.99 µM, a TGI (RPMI-8226 leukemia) of 5.3 µM and a GI50 (SW-620 colon) of 0.488 µM. The TGI (SW-620 colon) was 2.67 µM, the GI50 (COLO 205 colon) was 0.623 µM and the TGI (COLO 205 colon) was 2.24 µM. The GI50 (OVCAR-5 ovarian) was 3.08 µM, the TGI (OVCAR-5 ovarian) was greater than 100 µM and the GI50 (MDA-MB-435) was 1.71 µM. For the same molecule, the TGI (MDA-MB-435) was 3.47 µM, the GI50 (UO-31 renal) was 1.53 µM and the TGI (UO-31 renal) was 2.95 µM. The GI50 (NCI-H23 lung) was 3.82 µM, the TGI (NCI-H23 lung) was greater than 100 µM and the GI50 (MCF7 breast) was 1.52 µM. For the same molecule, the TGI (MCF7 breast) was greater than 100 µM, the GI50 (IGROV1 ovarian) was 2.38 µM and the TGI (IGROV1 ovarian) was greater than 100 µM. For the same molecule, the GI50 (NCI-H460 lung) was 1.42 µM, the TGI (NCI-H460 lung) was 3.31 µM and the GI50 (EKVX NSCLC) was 4.07 µM. It also gave a TGI (EKVX NSCLC) greater than 100 µM, a GI50 (SR leukemia) of 0.24 µM and a TGI (SR leukemia) of 0.613 µM.

Reference: PubChem BioAssay (NCI)
